In patent US8658661B2, “Oxadiazole inhibitors of leukotriene production” (Boehringer Ingelheim International GmbH, priority 2010, dated 2014):

Experiments:
[1] = target: T1, recombinant human FLAP protein (Homo sapiens, UniProt P20292); experiment: FLAP binding assay (SPA, displacement of [125I]L-691,831); conditions: membranes of sf9 cells expressing recombinant human FLAP; [125I]L-691,831 probe; read-out: FLAP binding IC50
T1 construct: made in house; host or cells: Sf9 insect cells (100,000×g membrane pellet used)
T1 sequence (P20292 1-161): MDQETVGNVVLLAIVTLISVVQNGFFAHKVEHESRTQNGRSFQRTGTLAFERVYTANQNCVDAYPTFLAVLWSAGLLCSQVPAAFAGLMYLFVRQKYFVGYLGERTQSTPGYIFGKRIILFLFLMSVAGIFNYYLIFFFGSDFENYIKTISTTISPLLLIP
Summary of the method: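 Membranes from sf9 cells expressing human FLAP in pH 7.5 Tris buffer (MgCl2, EDTA, PMSF). Non-specific binding defined with 10 μM cold L-691,831.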

[2] = tested on: synthesis of LTB4 in human whole blood; experiment: Human whole blood assay (inhibition of LTB4 synthesis, calcimycin stimulated); type: cell-based; conditions: heparinized human whole blood, calcimycin 20 μM, plasma LTB4
Summary of the method: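 LTB4 levels in plasma were measured by antibody-based HTRF after heparinized human whole blood, pretreated with compound (15 min, 37° C), was challenged with 20 μM calcimycin for 30 min at 37° C.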

SMILES	IC50 [1] [nM]	IC50 [2] [nM]
CC(C)(O)CNc1cnc(-c2nc(C(C)(c3ccc(-c4cnc(N)nc4)cc3)C3CC3)no2)cn1 (centres unmarked) [Example 44, 1-{[5-(3-{1-[4-(2-aminopyrimidin-5-yl)phenyl]-1-cyclopropylethyl}-1,2,4-oxadiazol-5-yl)pyrazin-2-yl]amino}-2-methylpropan-2-ol]	2.2	150
CC(C)C(C)(c1ccc(-c2cnc(N)nc2)cc1)c1noc(N2CCC(S(C)(=O)=O)CC2)n1 (centres unmarked) [Example 208, 5-(4-{1-[5-(4-Methanesulfonyl-piperidin-1-yl)-[1,2,4]oxadiazol-3-yl]-1,2-dimethyl-propyl}-phenyl)-pyrimidin-2-ylamine]	13	250
CC(C)C(C)(c1ccc(-c2cnc(N)nc2)cc1)c1noc(N2CCC(CO)CC2)n1 (centres unmarked) [Example 209, [1-(3-{1-[4-(2-Amino-pyrimidin-5-yl)-phenyl]-1,2-dimethyl-propyl}-[1,2,4]oxadiazol-5-yl)-piperidin-4-yl]-methanol]	8.2	100
COCCNc1cnc(-c2nc(C(C)(c3ccc(-c4cnc(N)nc4)cc3)C3CCC3)no2)cn1 (centres unmarked) [Example 36, 5-{4-[1-cyclobutyl-1-(5-{5-[(2-methoxyethyl)amino]pyrazin-2-yl}-1,2,4-oxadiazol-3-yl)ethyl]phenyl}pyrimidin-2-amine]	3.2	170
C[C@](c1ccc(-c2cnc(N)nc2)cc1)(c1noc(-c2cnn(C3COC3)c2)n1)C1CCC1 [Example 103, 5-{4-[(1S)-1-cyclobutyl-1-{5-[1-(oxetan-3-yl)-1H-pyrazol-4-yl]-1,2,4-oxadiazol-3-yl}ethyl]phenyl}pyrimidin-2-amine]	130	2700
Cc1ccc(-c2nc(C(C)(c3ccc(-c4cnc(N)nc4)cc3)C(C)C)no2)cn1 (centres unmarked) [Example 4, 5-(4-{3-methyl-2-[5-(6-methylpyridin-3-yl)-1,2,4-oxadiazol-3-yl]butan-2-yl}phenyl)pyrimidin-2-amine]	1.6	310
CC(C)C(C)(c1ccc(-c2cnc(N)nc2)cc1)c1noc(C2(C(=O)O)CCCCC2)n1 (centres unmarked) [Example 145, 1-(3-{2-[4-(2-aminopyrimidin-5-yl)phenyl]-3-methylbutan-2-yl}-1,2,4-oxadiazol-5-yl)cyclohexanecarboxylic acid]	17	2500
COc1ccncc1-c1nc(C(C)(c2ccc(-c3cnc(N)nc3)cc2)C(C)C)no1 (centres unmarked) [Example 11, 5-(4-{2-[5-(4-methoxypyridin-3-yl)-1,2,4-oxadiazol-3-yl]-3-methylbutan-2-yl}phenyl)pyrimidin-2-amine]	1.9	89
CN(C)C(=O)Cn1cc(-c2nc(C(C)(c3ccc(-c4cnc(N)nc4F)cc3)C3CC3)no2)cn1 (centres unmarked) [Example 275, 2-[4-(3-{1-[4-(2-Amino-4-fluoro-pyrimidin-5-yl)-phenyl]-1-cyclopropyl-ethyl}-[1,2,4]oxadiazol-5-yl)-pyrazol-1-yl]-N,N-dimethyl-acetamide]	11	220
CN(C)C(=O)Cn1cc(-c2nc([C@@](C)(c3ccc(-c4cnc5c(c4)CCN5)cc3)C3CC3)no2)cn1 [Example 284, 2-[4-(3-{(R)-1-Cyclopropyl-1-[4-(2,3-dihydro-1H-pyrrolo[2,3-b]pyridin-5-yl)-phenyl]-ethyl}-[1,2,4]oxadiazol-5-yl)-pyrazol-1-yl]-N,N-dimethyl-acetamide]	4.7	200
CC(C)C(C)(c1ccc(-c2cnc(N)nc2)cc1)c1noc(-c2ccc(Cl)nc2)n1 (centres unmarked) [Example 7, 5-(4-{2-[5-(6-chloropyridin-3-yl)-1,2,4-oxadiazol-3-yl]-3-methylbutan-2-yl}phenyl)pyrimidin-2-amine]	3.1	560
Cc1ncccc1-c1nc(C(C)(c2ccc(-c3cnc(N)nc3)cc2)C(C)C)no1 (centres unmarked) [Example 5, 5-(4-{3-methyl-2-[5-(2-methylpyridin-3-yl)-1,2,4-oxadiazol-3-yl]butan-2-yl}phenyl)pyrimidin-2-amine]	1.6	150
Cn1cc(-c2nc(C(c3ccc(-c4cnc(N)nc4)cc3)C(C)(C)C)no2)cn1 (centres unmarked) [Example 58, 5-(4-{2,2-dimethyl-1-[5-(1-methyl-1H-pyrazol-4-yl)-1,2,4-oxadiazol-3-yl]propyl}phenyl)pyrimidin-2-amine]	11	190
CC(C)(O)CNc1cnc(-c2nc(C(C)(C)c3ccc(-c4cnc(N)nc4)cc3)no2)cn1 [Example 73, 1-{[5-(3-{2-[4-(2-aminopyrimidin-5-yl)phenyl]propan-2-yl}-1,2,4-oxadiazol-5-yl)pyrazin-2-yl]amino}-2-methylpropan-2-ol]	28	990
COCCn1cc(-c2nc(C(C)(c3ccc(-c4cnc(N)nc4)cc3)C3CC3)no2)cn1 (centres unmarked) [Example 30, 5-[4-(1-cyclopropyl-1-{5-[1-(2-methoxyethyl)-1H-pyrazol-4-yl]-1,2,4-oxadiazol-3-yl}ethyl)phenyl]pyrimidin-2-amine]	5	60
CC(C)C(C)(c1ccc(-c2cnc(N)nc2)cc1)c1noc(NC2CCN(C)CC2)n1 (centres unmarked) [Example 236, 5-(4-{1,2-Dimethyl-1-[5-(1-methyl-piperidin-4-ylamino)-[1,2,4]oxadiazol-3-yl]-propyl}-phenyl)-pyrimidin-2-ylamine]	89	1300
CN(C)C(=O)Cn1cc(-c2nc([C@@](C)(c3ccc(-c4cnc(N)c(C#N)n4)cc3)C3CC3)no2)cn1 [Example 294, 2-[4-(3-{(R)-1-[4-(5-Amino-6-cyano-pyrazin-2-yl)-phenyl]-1-cyclopropyl-ethyl}-[1,2,4]oxadiazol-5-yl)-pyrazol-1-yl]-N,N-dimethyl-acetamide]	7	200
CC(C)C(C)(c1ccc(-c2cnc(N)nc2)cc1)c1noc(N2CCN(CCO)CC2)n1 (centres unmarked) [Example 186, 2-[4-(3-{1-[4-(2-Amino-pyrimidin-5-yl)-phenyl]-1,2-dimethyl-propyl}-[1,2,4]oxadiazol-5-yl)-piperazin-1-yl]-ethanol]	20	150
CC(C)C(C)(c1ccc(-c2cnc(N)nc2)cc1)c1noc(N(C)CCN(C)C)n1 (centres unmarked) [Example 260, N-(3-{1-[4-(2-Amino-pyrimidin-5-yl)-phenyl]-1,2-dimethyl-propyl}-[1,2,4]oxadiazol-5-yl)-N,N′,N′-trimethyl-ethane-1,2-diamine]	94	900
CN(C)C(=O)Cn1cc(-c2nc(C(C)(c3ccc(-c4cnc(NC5CC5)nc4)cc3)C3CC3)no2)cn1 (centres unmarked) [Example 250, 2-[4-(3-{1-Cyclopropyl-1-[4-(2-cyclopropylamino-pyrimidin-5-yl)-phenyl]-ethyl}[1,2,4]oxadiazol-5-yl)-pyrazol-1-yl]-N,N-dimethyl-acetamide]	470	> 5000
CC(C)(O)CNc1ccc(-c2nc(C(C)(c3ccc(-c4cnc(N)nc4)cc3)C3CC3)no2)cn1 (centres unmarked) [Example 39, 1-{[5-(3-{1-[4-(2-aminopyrimidin-5-yl)phenyl]-1-cyclopropylethyl}-1,2,4-oxadiazol-5-yl)pyridin-2-yl]amino}-2-methylpropan-2-ol]	2.1	110
CC(C)C(C)(c1ccc(-c2cnc(N)nc2)cc1)c1noc(N2CCC(C(C)(C)O)CC2)n1 (centres unmarked) [Example 198, 2-[1-(3-{1-[4-(2-Amino-pyrimidin-5-yl)-phenyl]-1,2-dimethyl-propyl}-[1,2,4]oxadiazol-5-yl)-piperidin-4-yl]-prop an-2-ol]	7.5	280
CN(C)C(=O)Cn1cc(-c2nc(C(C)(c3ccc(-c4ccc(F)nc4N)cc3)C3CC3)no2)cn1 (centres unmarked) [Example 277, 2-[4-(3-{1-[4-(2-Amino-6-fluoro-pyridin-3-yl)-phenyl]-1-cyclopropyl-ethyl}-[1,2,4]oxadiazol-5-yl)-pyrazol-1-yl]-N,N-dimethyl-acetamide]	64	> 5000
Cc1nc(N)ncc1-c1ccc(C(C)(c2noc(-c3cnn(CC(=O)N(C)C)c3)n2)C2CC2)cc1 (centres unmarked) [Example 240, 2-[4-(3-{1-[4-(2-Amino-4-methyl-pyrimidin-5-yl)-phenyl]-1-cyclopropyl-ethyl}-[1,2,4]oxadiazol-5-yl)-pyrazol-1-yl]-N,N-dimethyl-acetamide]	15	190
Cc1nc(N)ncc1-c1ccc([C@@](C)(c2noc(-c3cnn(CC(=O)N(C)C)c3)n2)C2CC2)cc1 [Example 258, 2-[4-(3-{(S)-1-[4-(2-Amino-4-methyl-pyrimidin-5-yl)-phenyl]-1-cyclopropyl-ethyl}-[1,2,4]oxadiazol-5-yl)-pyrazol-1-yl]-N,N-dimethyl-acetamide]	430	2300
CC(C)[C@](C)(c1ccc(-c2cnc(N)nc2)cc1)c1noc(-c2ccn(C)n2)n1 [Example 16, 5-(4-{(2R)-3-methyl-2-[5-(1-methyl-1H-pyrazol-3-yl)-1,2,4-oxadiazol-3-yl]butan-2-yl}phenyl)pyrimidin-2-amine]	2.5	110
C[C@@](c1ccc(-c2ccc(N)nc2)cc1)(c1noc(-c2cnn(C3COC3)c2)n1)C1CC1 [Example 263, 5-(4-{(R)-1-Cyclopropyl-1-[5-(1-oxetan-3-yl-1H-pyrazol-4-yl)-[1,2,4]oxadiazol-3-yl]-ethyl}-phenyl)-pyridin-2-ylamine]	3.5	21
CC(C)C(C)(c1ccc(-c2cnc(N)nc2)cc1)c1noc(-c2cncnc2)n1 (centres unmarked) [Example 129, 5-(4-{3-methyl-2-[5-(pyrimidin-5-yl)-1,2,4-oxadiazol-3-yl]butan-2-yl}phenyl)pyrimidin-2-amine]	2	180
